The values below come from US4665082A, “Cysteine delivery system” (Cornell Research Foundation, priority 1985, dated 1987).

For one experiment, the system named is metabolism of glutamate. Kind of experiment: In vivo metabolism of L-[14C]glutamate (respiratory 14CO2). Particulars: mice, injection of L-[14C]glutamate. How it is done: (§1) The in vitro results showing that L-2-oxothiazolidine-4-carboxylate inhibits utilization of 5-oxoproline were confirmed by in vivo experiments. In the latter, animals were injected with 5-oxo-L-[^14 C]proline and the respiratory [^14 CO2 ] produced was collected and measured for several hours. […] However, L-2-oxothiazolidine-4-carboxylate is a much more efficient inhibitor.
(§2) FIG. 3 depicts the inhibition of 5-oxoproline metabolism by L-2-oxothiazolidine-4-carboxylate. Mice fasted overnight were injected intraperitoneally with NaCl (Curve 1; open symbols; controls) or with Na L-2-oxothiazolidine-4-carboxylate (2.5 mmol/kilo) (Curve 2; closed symbols). After 10 min., the mice were injected subcutaneously with 5-oxo-L-[^14 C]proline (A) or with L-[^14 C]glutamate (B) (0.02 mmol; 1.1×10^6 cpm). The mice were then placed in metabolic chambers and the respiratory CO2 was collected in ethanolamine/methanol, 1:4 (vol/vol). In A, each curve represents the results on 3 animals; the points are mean values and the bars represent standard deviations from the mean. In B, each curve represents the average of closely-agreeing results obtained from 2 animals.

Another experiment relates to hepatic glutathione. Kind of experiment: Hepatic glutathione level after injection. In kind it is in vivo, mice. Particulars: for level of hepatic glutathione relative to controls: mice fasted overnight, intraperitoneal injection (Na salt, 6.5 mmol/kilo; D-isomer equivalent doses). As for the experimental part:
The effect of injecting mice with L-2-oxothiazolidine-4-carboxylate on the level of hepatic glutathione was studied. […] The maximal effect was observed about 4 hours after injection. […] These findings are indicative of in vivo formation of cysteine after administration of L-2-oxothiazolidine-4-carboxylate.
Mice fastened overnight were injected intraperitoneally with NaCl (controls; dashed line) or with Na L-2-oxothiazolidine-4-carboxylate (6.5 mmol/kilo). At intervals, the mice were sacrificed and the excised liver was homogenized in 5 volumes of 1% picric acid. After centrifugation, the protein-free supernatant solutions were analyzed for glutathione by the method of Tietze, Anal. Biochem 27, 502-22 (1969). Analyses were carried out in duplicate. In a number of instances, these values were checked by the 2-vinylpyridine procedure of Griffith, Anal. Biochem. 106; 207-12 (1980); good agreement between the two methods was observed. In the figure, the points are mean values and the bars indicate the average deviation from the mean. The numbers in parentheses give the number of animals used. The value for the controls was 4.40±0.9 umol/g.

Experiment [1] concerns the target T1, 5-oxo-L-prolinase (Rattus norvegicus, UniProt P97608).
T1 construct: 5-Oxo-L-prolinase was isolated from rat kidney and freed of 5-oxoproline by gel filtration; from tissue; host or cells: rat kidney
T1 sequence (P97608 1-1288): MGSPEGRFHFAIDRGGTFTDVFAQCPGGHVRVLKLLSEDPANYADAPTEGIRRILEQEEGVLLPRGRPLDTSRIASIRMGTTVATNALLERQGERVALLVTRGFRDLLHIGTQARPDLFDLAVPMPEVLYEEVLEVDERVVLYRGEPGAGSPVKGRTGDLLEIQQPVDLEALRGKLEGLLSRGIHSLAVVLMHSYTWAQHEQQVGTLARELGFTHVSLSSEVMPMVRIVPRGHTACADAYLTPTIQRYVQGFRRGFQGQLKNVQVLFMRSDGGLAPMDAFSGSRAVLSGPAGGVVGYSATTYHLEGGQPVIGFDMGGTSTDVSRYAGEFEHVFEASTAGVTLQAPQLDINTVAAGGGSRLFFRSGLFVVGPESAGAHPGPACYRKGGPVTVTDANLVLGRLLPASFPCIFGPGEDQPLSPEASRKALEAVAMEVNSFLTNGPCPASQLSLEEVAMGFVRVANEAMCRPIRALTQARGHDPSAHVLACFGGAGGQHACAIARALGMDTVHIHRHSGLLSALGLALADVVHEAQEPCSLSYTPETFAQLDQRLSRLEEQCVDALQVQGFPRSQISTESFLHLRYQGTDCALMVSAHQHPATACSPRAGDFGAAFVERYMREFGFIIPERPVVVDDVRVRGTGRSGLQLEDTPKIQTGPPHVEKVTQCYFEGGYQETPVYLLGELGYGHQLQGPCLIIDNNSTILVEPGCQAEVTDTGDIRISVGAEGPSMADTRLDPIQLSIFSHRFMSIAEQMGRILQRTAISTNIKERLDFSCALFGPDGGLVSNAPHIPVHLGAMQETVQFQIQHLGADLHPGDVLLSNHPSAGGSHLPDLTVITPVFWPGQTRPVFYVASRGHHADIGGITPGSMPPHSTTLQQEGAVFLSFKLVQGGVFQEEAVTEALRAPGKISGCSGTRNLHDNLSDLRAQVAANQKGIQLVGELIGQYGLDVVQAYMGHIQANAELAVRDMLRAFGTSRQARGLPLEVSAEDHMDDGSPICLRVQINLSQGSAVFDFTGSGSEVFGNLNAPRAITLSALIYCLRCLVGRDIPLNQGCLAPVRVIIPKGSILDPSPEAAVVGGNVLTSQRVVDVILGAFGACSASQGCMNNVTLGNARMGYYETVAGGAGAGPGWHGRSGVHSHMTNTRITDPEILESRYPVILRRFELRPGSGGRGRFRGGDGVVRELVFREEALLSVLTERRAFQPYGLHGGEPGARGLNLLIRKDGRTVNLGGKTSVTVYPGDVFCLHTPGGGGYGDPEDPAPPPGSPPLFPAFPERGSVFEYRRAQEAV
In words: Action of 5-oxo-L-prolinase on substrates (formation of ADP and amino acid). In kind it is biochemical. Particulars: for Reaction with the enzyme in the presence of ATP (formation of ADP and cysteine): incubation with 5-oxo-L-prolinase and ATP, FIG. 2: 5 mM substrate. How it is done:
(§3) In the experiments the reaction mixtures were made up to contain (final volume 0.5 ml) 100 mM Na Hepes (Na salt of N-2-hydroxyethylpiperizine-N'-2ethanesulfonic acid) buffer (pH 8.0), 150 mM KCl, 8 mM MgCl2, 2 mM phosphoenolpyruvate, 5 mM ATP (adenosine triphosphate), pyruvate kinase, in excess, 20 micrograms of 5-oxoprolinase, and the substrate as indicated.
(§4) The L- and D-isomers of 2-oxothiazolidine-4-carboxylate were synthesized by the method set out in Kaneko et al, Bull, Chem. Soc. (Japan) vol. 37, pp. 242-4 (1964) as modified by the method of Shah et al, Cancer Research vol. 39, pp. 3942-7 (1979). 5-Oxo-L-prolinase was isolated from rat kidney and freed of 5-oxoproline by gel filtration. Other chemicals and materials were obtained commercially.
(§5) After incubation for 30 min. at 37° C., the reaction mixtures were treated with 0.1 volume of 1M HCl, and placed at 0° C. for 5 min.; and an equivalent volume of 1M 2-amino-2-hydroxylmethyl-1,3,-propanediol was added. Portions were analyzed for amino acids by use of a Durrum Model 500 amino acid analyzer. Cysteine was also determined in some experiments by reaction with 5,5'-dithiobis(2-nitrobenzoate (DTNB).
At the indicated intervals portions were analyzed for ADP by the method indicated in the Table footnote, and for cysteine by reaction with DTNB.

The next experiment relates to 5-oxoproline metabolism. In words: In vivo metabolism of 5-oxo-L-[14C]proline (respiratory 14CO2, urinary radioactivity). Details: species or system mice. How it is done:
as §1, §2

The test system of another experiment is liver glutathione. Kind of experiment: Liver glutathione in animals depleted of hepatic glutathione (acetoaminophenol). It counts as in vivo. Particulars: mice depleted of hepatic glutathione, compound given even two hours after acetoaminophenol. As for the experimental part: Administration of this compound therefore provides a way of getting cysteine into cells. One cannot give cysteine itself without complications since this amino acid is toxic extracellularly. However, when the L-oxothiazolidine compound is injected it enters the cell where it is split giving rise to cysteine within the cell. In a number of clinical situations, for example, after poisoning with excessive pain-killing drugs, e.g., those containing active ingredients known as N-acetyl-para-aminophenol, paracetamol, and acetaminophen, the liver glutathione levels decrease markedly. When cysteine is supplied to liver cells, additional glutathione can be synthesized and thus serve usefully in detoxifying the offending drug. Therefore, L-2-oxothiazolidine-4-carboxylate serves as an intracellular delivery system for cysteine and has potential as a therapeutic agent in situations in which there is depletion of liver glutathione. After acetoaminophenol is given to experimental animals such as mice, the liver glutathione declines rapidly because it is extensively utilized by reaction with the drug. […] For human treatment the L-isomer, preferably in the form of its neutral salt is administered directly into the gastro-intestinal tract or introduced intravenously.

Experiment [2] addresses T1, 5-oxo-L-prolinase. Kind of experiment: Inhibition of utilization of 5-oxo-L-proline (glutamate formation) by the purified enzyme. In kind it is biochemical. Particulars: 1 mM 5-oxo-L-proline; under these conditions (1, 5, 10 mM). How it is done: as §3, §4, §5
Energy for the reaction is supplied by the cleavage of ATP. […] The ratio of ADP to cysteine produced increased with time due undoubtedly to the loss of cysteine due to oxidation.

[3] abbreviates: substrate 2 mM, 30 min at 37° C.

Each structure is given as a SMILES string. “Also recorded” adds a separate entry of the source.

On to `O=C1N[C@H](C(=O)O)CS1` [L-2-oxothiazolidine-4-carboxylate], for which the “effect on the metabolism of glutamate” value with metabolism of glutamate is “does not have a significant effect”. Moreover, the “free cysteine in acid extracts of the livers” value in the experiment with hepatic glutathione (amino acid analyses after reduction by dithiothreitol and derivatization with 2-vinylpyridine) is given as “No free cysteine was detected”. For the same molecule, the “level of hepatic glutathione relative to controls” value with hepatic glutathione was “about twice those of the controls”. Further, the “apparent Km value” at 5-oxo-L-prolinase [1] (compared with the natural substrate 5-oxo-L-proline) is given as “somewhat lower than that found for the natural substrate”. At 5-oxo-L-prolinase [1] (5 mM ATP), the “Reaction with the enzyme in the presence of ATP (formation of ADP and cysteine)” value was “rapid formation of ADP and cysteine”. Further, the “Products Formed: Amino Acid (after conversion to cystine)” value on 5-oxo-L-prolinase [1] (setting [3]) was determined as 463 nmol. Moreover, the “Products Formed: Amino Acid (determined after reduction with KBH4 and reaction with iodoacetamide)” value on 5-oxo-L-prolinase [1] (setting [3]) came to 466 nmol. Moreover, the “injected dose (radioactivity) excreted in urine” value in the experiment with 5-oxoproline metabolism (animals treated with L-isomer and injected with 5-oxo-L-[14C]proline, none in urine of controls) was “about 16%”. In the experiment on 5-oxoproline metabolism (in vivo comparison), the “activity on a molar basis compared with L-2-imidazolidine-4-carboxylate (inhibition of 5-oxoproline metabolism in vivo)” value was “at least four times more active”. Besides, the “formation of [14CO2] from injected 5-oxo-L-[14C]proline” value with 5-oxoproline metabolism (mice, Na salt 2.5 mmol/kilo intraperitoneally, 10 min before 5-oxo-L-[14C]proline s.c.) is “marked decrease”. In addition, the “liver glutathione after depletion” value is “restoration of normal hepatic glutathione levels” with liver glutathione and “an increase in liver glutathione occurs” with liver glutathione (listed as L-isomer compound).

Consider `O=C1N[C@@H](C(=O)O)CS1` [D-2-oxothiazolidine-4-carboxylate], for which, in the experiment with hepatic glutathione, the “level of hepatic glutathione relative to controls” value was “No such stimulation was observed”. Besides, the “Reaction with the enzyme in the presence of ATP (formation of ADP and cysteine)” value on 5-oxo-L-prolinase [1] (5 mM ATP, listed as D-isomer) was “absence of reaction; also recorded: No reaction was observed”. On 5-oxo-L-prolinase [1] (substrate 5 mM, footnote e: less than 20 nmol), the “Products Formed: Amino Acid (determined after reduction with KBH4 and reaction with iodoacetamide)” value amounted to 0 nmol. Further, on 5-oxo-L-prolinase [2], the “inhibition of glutamate formation (in words)” value is reported as “did not inhibit glutamate formation”.

Consider `O=C1CC[C@@H](C(=O)O)N1` [5-Oxo-L-proline, 5-oxo-L-proline], for which, at 5-oxo-L-prolinase [1] (natural substrate compared with the L-isomer), the “calculated Vmax value” is reported as “higher than that found for the L-isomer”.

With `O=C1NC[C@@H](C(=O)O)N1` [L-2-imidazolidone-4-carboxylate], the “Products Formed: ADP” value on 5-oxo-L-prolinase [1] (substrate 2 mM, 5 mM ATP, 20 micrograms enzyme, 30 min at 37° C., pH 8.0, pyruvate kinase-lactate dehydrogenase coupled assay) is 930 nmol. Also, the “Products Formed: Amino Acid” value at 5-oxo-L-prolinase [1] (substrate 2 mM, footnote f: less than 5 nmol) stood at 0 nmol.
